Test results as given in US7723473B2, “Peptide antagonists of TGF-beta family members and therapeutic uses thereof” (St. Louis University, priority 1997, dated 2010).

What was measured:
TGF-β receptors [1] = test: Inhibition of specific binding of 125I-TGF-β3 to TGF-β receptors in mink lung epithelial cells; conditions: 0.1 nM 125I-TGF-β3, 2.5 hr at 0° C.; read-out: IC50 for inhibiting 125I-TGF-β3 binding to TGF-β receptors
Description: (§1) Specific binding of ^125I-labeled TGF-β1, TGF-β2, and TGF-β3 (^125I-TGF-β1, ^125I-TGF-β2, and ^125I-TGF-β3) to TGF-β receptors in mink lung epithelial cells. ^125I-TGF-β1, ^125I-TGF-β2, and ^125I-TGF-β3 were prepared by iodination of TGF-β1, TGF-β2, and TGF-β3 with Na^125I as described previously (Ref. 7). The specific radioactivities of ^125I-TGF-β1, ^125I-TGF-β2, and ^125I-TGF-β3 were 1-3×10^5 cpm/ng. Mink lung epithelial cells were grown on 24-well clustered dishes to near confluence in Dulbecco's modified Eagle medium (DMEM) containing 10% fetal calf serum. The epithelial cells were incubated with 0.1 nM ^125I-TGF-β1, ^125I-TGF-β2, or ^125I-TGF-β3 both with and without 100-fold excess of unlabeled TGF-β1, TGF-β2, or TGF-β3 in binding buffer (Ref. 7). After 2.5 hr at 0° C., the cells were washed two times with binding buffer, and the cell-associated radioactivity was determined. The specific binding of ^125I-labeled TGF-β isoforms to TGF-β receptors in the cells was calculated by subtracting non-specific binding (in the presence of 100-fold excess of the unlabeled TGF-β isoforms) from total binding. All experiments were carried out in triplicate cell cultures.

TGF-β receptors [2] = test: Inhibition of specific binding of 125I-TGF-β1 to TGF-β receptors in mink lung epithelial cells; conditions: for inhibition of 125I-TGF-β1 binding to TGF-β receptors (in words): various concentrations, FIG. 1D / control experiments; for TGF-β antagonist activity compared with the cysteine-containing peptides: C44S/C48S versions; for effect on 125I-TGF-β1 binding to TGF-β receptors: even at a concentration of 136 μM; for IC50 lower than that of peptide β1^25 (41-65) prior to conjugation: 125I-TGF-β1 binding; for IC50: 0.1 nM 125I-TGF-β1, 2.5 hr at 0° C., read-out: IC50 for inhibiting 125I-TGF-β1 binding to TGF-β receptors
Description: as §1, with “The specific binding of ^125I-labeled TGF-β isoforms to TGF-β receptors in the cells was calculated by subtracting non-specific binding (in the presence of 100-fold excess of the unlabeled TGF-β isoforms) from total binding.” left out

[3] = Stability in solution or gel during storage; assay type: physicochemical; conditions: compared with cysteine-containing peptides
Description: Preparation of peptides. The amino acid sequences of all peptides were derived from those of TGF-β1, TGF-β2, and TGF-β3. For peptides β1^25 (41-65), β2^25 (41-65), and β3^25 (41-65), other versions in which cysteine-44 and cysteine-48 were replaced by serine residues were also synthesized. […] The C44S/C48S version of peptide β1^25 (41-65) is designated SEQ ID NO:12, the C44S/C48S version of the peptide β2^25 (41-65) is designated SEQ ID NO: 13, and the C44S/C48S version of peptide of β3^25 (41-65) is designated SEQ ID NO:14. […] The peptides were synthesized using tert-butoxycarbonyl chemistry on an Applied Biosystems Model 431A peptide synthesizer and purified using Sephadex G-25 column chromatography and reverse-phase HPLC (C-8 column). The purity of the synthesized peptides were verified by automated Edman degradation on an Applied Biosystems Model 477A gas/liquid phase protein sequenator with an on-line Applied Biosystems Model 120A phenylthiohydantoin amino acid analyzer. The purity of all peptides was estimated to be ≧95%.
Preparation of IntraSite® gel containing TGF-β peptantagonist (peptide TGF-beta antagonist). 1 ml of sterile 6 mM peptide β1^25 (41-65) in phosphate buffered saline or 1 ml of sterile phosphate buffered saline was vigorously mixed with 3 ml of IntraSite® gel using two 10 ml syringes connected with a three-way connector. […] However, 1.5 mM of peptide β1^25 (41-65) was used throughout the experiments described below.

type V TGF-β receptor = type V TGF-β receptor (Homo sapiens, UniProt Q07954); conditions: Ref. 6; read-out: Kd for binding to the type V TGF-β receptor; cited from earlier work
[4] = tested on: mink lung epithelial cells; test: Mink lung epithelial cell growth measured by DNA synthesis without added TGF-β1 (agonist activity); assay type: cell-based; conditions: for EC50: no added TGF-β1, read-out: ED50 of growth inhibition as measured by DNA synthesis
Description: [Methyl-^3H]thymidine Incorporation—Mink lung epithelial cells grown on 24-well clustered dishes were incubated with various concentrations of TGF-β1 in the presence and absence of peptide β1^25 (41-65) or with various concentrations of peptide β1^25 (41-65)-CA, and peptide β1^25 (41-65)-BSA in DMEM containing 0.1% fetal calf serum. After 16 hr at 37° C., the cells were pulsed with 1 μCi/ml of [methyl-^3H]thymidine for 4 hr. The cells were then washed twice with 1 ml of 10% trichloroacetic acid and once with 0.5 ml of ethanol:ether (2:1, v/v). The cells were then dissolved in 0.4 ml of 0.2 N NaOH and counted with a liquid scintillation counter.

PAI-1 expression = PAI-1 expression in mink lung epithelial cells (Northern blot); assay type: cell-based; conditions: conjugates alone, data not shown
Description: RNA Analysis—Mink lung epithelial cells were grown overnight in 12-well clustered dishes in DMEM containing 10% fetal calf serum. The medium was then changed to DMEM containing 0.1% fetal calf serum and the cells were incubated with 0.25 and 2.5 ρM TGF-β1 in the presence of various concentrations of peptide β1^25 (41-65) for 2.5 hr. Total cellular RNA was extracted using RNAzol B (Tel-Test Inc.) according to the manufacturer's protocol. RNA was electrophoresed in 1.2% agarose-formaldehyde gel and transferred to Duralon-UV membranes using 10×SSC. The membranes were probed at 42° C. with a random-primed, radiolabeled 1-kb fragment from the Hind III and NeoI digests of PAI-1 cDNA and glyceraldehyde-3-phosphate dehydrogenase (“GAPDH”) cDNA. The blots were washed with 0.1×SSC containing 0.1% SDS at room temperature.

type V TGF-β receptor, sequence (Q07954 20-4544): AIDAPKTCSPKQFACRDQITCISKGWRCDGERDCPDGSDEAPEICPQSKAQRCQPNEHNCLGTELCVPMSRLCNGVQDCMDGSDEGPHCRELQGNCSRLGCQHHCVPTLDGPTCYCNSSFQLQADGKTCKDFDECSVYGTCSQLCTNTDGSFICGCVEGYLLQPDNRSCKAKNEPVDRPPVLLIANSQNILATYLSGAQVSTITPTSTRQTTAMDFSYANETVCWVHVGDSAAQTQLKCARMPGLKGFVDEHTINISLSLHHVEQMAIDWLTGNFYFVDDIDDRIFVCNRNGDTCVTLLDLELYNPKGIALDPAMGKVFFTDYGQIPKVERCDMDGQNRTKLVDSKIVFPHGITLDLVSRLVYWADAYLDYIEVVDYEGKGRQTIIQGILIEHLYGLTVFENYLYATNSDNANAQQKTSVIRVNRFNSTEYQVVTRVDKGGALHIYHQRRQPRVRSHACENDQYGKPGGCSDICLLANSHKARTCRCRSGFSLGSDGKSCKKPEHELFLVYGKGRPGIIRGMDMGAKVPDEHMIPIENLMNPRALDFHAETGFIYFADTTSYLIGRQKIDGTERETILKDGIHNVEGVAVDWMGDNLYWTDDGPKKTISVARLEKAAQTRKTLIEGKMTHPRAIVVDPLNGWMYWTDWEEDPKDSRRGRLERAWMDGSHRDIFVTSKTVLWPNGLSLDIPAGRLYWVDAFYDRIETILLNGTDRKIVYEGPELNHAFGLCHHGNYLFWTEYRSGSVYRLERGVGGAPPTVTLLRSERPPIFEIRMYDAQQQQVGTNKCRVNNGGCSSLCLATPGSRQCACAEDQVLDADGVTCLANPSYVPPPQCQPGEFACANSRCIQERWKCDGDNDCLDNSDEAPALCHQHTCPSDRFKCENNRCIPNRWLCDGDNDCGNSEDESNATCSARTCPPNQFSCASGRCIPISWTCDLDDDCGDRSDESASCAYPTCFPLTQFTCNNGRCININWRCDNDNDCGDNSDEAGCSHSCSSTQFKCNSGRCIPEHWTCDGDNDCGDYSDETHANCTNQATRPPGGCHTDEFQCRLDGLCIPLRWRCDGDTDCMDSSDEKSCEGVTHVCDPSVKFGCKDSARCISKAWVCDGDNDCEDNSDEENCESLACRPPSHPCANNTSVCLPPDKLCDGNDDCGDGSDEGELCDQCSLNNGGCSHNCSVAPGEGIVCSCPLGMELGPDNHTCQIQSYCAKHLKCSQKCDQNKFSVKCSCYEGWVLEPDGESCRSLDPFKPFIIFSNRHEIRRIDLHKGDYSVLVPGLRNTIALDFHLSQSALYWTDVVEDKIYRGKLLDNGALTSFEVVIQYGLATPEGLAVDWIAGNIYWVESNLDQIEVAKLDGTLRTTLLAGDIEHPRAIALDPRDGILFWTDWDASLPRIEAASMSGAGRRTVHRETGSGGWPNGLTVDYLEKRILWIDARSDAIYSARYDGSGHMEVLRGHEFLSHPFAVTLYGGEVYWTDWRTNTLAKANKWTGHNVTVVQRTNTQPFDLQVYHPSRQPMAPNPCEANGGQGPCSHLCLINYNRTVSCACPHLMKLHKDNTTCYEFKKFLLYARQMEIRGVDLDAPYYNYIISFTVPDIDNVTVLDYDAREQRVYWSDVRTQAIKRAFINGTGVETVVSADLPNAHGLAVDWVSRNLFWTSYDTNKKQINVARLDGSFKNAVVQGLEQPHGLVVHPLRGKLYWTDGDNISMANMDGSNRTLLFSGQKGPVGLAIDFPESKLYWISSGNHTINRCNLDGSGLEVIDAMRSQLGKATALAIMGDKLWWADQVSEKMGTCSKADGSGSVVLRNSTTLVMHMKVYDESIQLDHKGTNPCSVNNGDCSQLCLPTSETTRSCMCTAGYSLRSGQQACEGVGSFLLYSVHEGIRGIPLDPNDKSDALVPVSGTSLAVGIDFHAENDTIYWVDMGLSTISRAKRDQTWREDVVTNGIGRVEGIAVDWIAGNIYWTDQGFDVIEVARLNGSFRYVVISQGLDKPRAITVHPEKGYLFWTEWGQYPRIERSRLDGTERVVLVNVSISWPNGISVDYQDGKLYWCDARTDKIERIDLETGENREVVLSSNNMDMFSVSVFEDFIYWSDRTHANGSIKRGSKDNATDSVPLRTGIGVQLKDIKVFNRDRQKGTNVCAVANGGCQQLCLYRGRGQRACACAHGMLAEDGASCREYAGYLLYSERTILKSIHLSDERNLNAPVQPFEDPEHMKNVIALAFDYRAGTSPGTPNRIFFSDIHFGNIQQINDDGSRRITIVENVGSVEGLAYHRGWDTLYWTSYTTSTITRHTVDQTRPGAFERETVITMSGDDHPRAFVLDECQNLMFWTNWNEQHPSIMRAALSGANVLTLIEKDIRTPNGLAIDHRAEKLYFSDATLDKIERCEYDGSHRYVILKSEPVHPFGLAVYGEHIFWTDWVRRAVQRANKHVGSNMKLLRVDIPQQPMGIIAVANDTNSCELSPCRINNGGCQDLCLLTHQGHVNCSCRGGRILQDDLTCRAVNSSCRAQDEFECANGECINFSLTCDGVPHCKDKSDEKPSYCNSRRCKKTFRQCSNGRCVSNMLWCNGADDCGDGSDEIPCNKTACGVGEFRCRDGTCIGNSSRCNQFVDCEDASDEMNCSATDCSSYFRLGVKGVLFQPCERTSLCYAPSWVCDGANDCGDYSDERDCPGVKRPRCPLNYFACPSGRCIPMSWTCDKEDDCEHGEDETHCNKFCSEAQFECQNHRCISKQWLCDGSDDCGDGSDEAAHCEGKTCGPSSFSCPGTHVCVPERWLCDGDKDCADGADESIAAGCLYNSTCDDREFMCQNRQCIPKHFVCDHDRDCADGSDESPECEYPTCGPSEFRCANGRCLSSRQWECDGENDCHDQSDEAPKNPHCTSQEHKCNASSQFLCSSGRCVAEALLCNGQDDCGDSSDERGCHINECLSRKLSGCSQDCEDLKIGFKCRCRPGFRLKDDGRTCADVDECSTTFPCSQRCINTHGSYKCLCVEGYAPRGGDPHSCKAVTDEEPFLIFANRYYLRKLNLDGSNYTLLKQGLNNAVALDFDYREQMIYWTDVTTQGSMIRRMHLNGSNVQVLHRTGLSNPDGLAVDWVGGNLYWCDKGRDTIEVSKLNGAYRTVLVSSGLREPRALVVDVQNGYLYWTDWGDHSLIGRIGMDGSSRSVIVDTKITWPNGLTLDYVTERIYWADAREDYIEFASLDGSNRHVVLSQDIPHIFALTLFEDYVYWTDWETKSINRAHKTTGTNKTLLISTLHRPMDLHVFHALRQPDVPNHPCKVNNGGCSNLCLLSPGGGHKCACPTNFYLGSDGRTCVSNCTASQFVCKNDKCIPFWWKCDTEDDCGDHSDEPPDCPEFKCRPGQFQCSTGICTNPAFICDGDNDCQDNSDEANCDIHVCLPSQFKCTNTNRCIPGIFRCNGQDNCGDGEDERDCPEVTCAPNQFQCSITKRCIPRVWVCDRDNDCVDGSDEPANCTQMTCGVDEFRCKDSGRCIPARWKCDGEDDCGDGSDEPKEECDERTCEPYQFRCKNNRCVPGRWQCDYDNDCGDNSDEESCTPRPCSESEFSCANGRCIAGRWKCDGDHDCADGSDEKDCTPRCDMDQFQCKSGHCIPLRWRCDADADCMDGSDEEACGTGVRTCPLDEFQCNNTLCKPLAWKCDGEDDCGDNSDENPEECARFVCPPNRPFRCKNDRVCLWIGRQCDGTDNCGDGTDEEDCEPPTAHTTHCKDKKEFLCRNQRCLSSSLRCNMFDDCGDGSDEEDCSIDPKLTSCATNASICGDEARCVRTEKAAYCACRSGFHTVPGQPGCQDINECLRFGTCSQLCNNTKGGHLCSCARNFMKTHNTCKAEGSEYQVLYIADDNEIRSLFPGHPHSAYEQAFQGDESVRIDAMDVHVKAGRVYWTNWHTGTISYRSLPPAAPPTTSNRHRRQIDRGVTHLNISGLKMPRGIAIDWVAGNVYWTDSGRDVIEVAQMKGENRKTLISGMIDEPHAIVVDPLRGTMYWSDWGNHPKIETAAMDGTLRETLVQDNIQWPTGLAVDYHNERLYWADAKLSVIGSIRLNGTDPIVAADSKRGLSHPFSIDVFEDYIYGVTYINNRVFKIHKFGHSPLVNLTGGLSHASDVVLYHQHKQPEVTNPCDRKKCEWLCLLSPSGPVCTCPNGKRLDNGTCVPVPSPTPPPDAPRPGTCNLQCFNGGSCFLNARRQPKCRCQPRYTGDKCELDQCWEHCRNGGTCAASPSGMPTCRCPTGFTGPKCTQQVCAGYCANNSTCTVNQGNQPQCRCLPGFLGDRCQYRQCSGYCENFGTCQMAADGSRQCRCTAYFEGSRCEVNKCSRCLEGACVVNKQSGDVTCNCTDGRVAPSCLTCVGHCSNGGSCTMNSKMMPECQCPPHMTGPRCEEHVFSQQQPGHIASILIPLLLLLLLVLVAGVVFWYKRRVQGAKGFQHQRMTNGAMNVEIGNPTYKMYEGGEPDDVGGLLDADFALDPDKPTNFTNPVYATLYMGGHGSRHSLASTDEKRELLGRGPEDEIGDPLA

ANFCAGACPYLWSSDTQHSRVLSLY [peptide β2^25 (41-65)]
IC50 (TGF-β receptors [1]): ~80 nM

CA: carrier protein human carbonic anhydrase I conjugated without peptides, control [reference compound]
inhibition of 125I-TGF-β1 binding to TGF-β receptors (in words) (TGF-β receptors [2]): did not have inhibitory activity

SEQ ID NO:12: β1^25 (41-65) with cysteine-44 and cysteine-48 replaced by serine residues (ANFSLGPSPYIWSLDTQYSKVLALY; listed as Homo sapiens)
TGF-β antagonist activity compared with the cysteine-containing peptides (TGF-β receptors [2]): same TGF-β antagonist activity | stability in solution during storage [3]: better stability

SEQ ID NO:14: β3^25 (41-65) with cysteine-44 and cysteine-48 replaced by serine residues (ANFSSGPSPYLRSADTTHSTVLGLY; listed as Homo sapiens)
TGF-β antagonist activity compared with the cysteine-containing peptides (TGF-β receptors [2]): same TGF-β antagonist activity | stability in solution during storage [3]: better stability

SEQ ID NO: 13: β2^25 (41-65) with cysteine-44 and cysteine-48 replaced by serine residues (ANFSAGASPYLWSSDTQHSRVLSLY; Human)
TGF-β antagonist activity compared with the cysteine-containing peptides (TGF-β receptors [2]): same TGF-β antagonist activity | stability in solution during storage [3]: better stability

TGF-β1: transforming growth factor β1, 25-kDa dimeric protein
Kd (type V TGF-β receptor): ~0.4 nM

TGF-β2: transforming growth factor β2
Kd (type V TGF-β receptor): ~0.4 nM

TGF-β3: transforming growth factor β3
Kd (type V TGF-β receptor): ~5 nM

peptide β1^25 (21-45): pentacosapeptide, residues 21-45 of human TGF-β1 (YIDFRKDLGWKWIHEPKGYHANFCL)
effect on 125I-TGF-β1 binding to TGF-β receptors (TGF-β receptors [2]): did not show any effect

peptide β1^25 (31-55): pentacosapeptide, residues 31-55 of human TGF-β1 (KWIHEPKGYHANFCLGPCPYIWSLD)
effect on 125I-TGF-β1 binding to TGF-β receptors (TGF-β receptors [2]): did not show any effect

peptide β1^25 (51-75): pentacosapeptide, residues 51-75 of human TGF-β1 (IWSLDTQYSKVLALYNQHNPGASAA)
effect on 125I-TGF-β1 binding to TGF-β receptors (TGF-β receptors [2]): did not show any effect

peptide β1^25 (61-85): pentacosapeptide, residues 61-85 of human TGF-β1 (VLALYNQHNPGASAAPCCVPQALEP)
effect on 125I-TGF-β1 binding to TGF-β receptors (TGF-β receptors [2]): did not show any effect

peptide β1^25 (71-95): pentacosapeptide, residues 71-95 of human TGF-β1 (GASAAPCCVPQALEPLPIVYYVGRK)
effect on 125I-TGF-β1 binding to TGF-β receptors (TGF-β receptors [2]): did not show any effect

peptide β1^25 (81-105): pentacosapeptide, residues 81-105 of human TGF-β1 (QALEPLPIVYYVGRKPKVEQLSNMI)
effect on 125I-TGF-β1 binding to TGF-β receptors (TGF-β receptors [2]): did not show any effect

β1^10 (49-58) D55A (PYIWSLATQY)
inhibition of 125I-TGF-β1 binding to TGF-β receptors (in words) (TGF-β receptors [2]): similar

β1^10 (49-58) S53A (PYIWALDTQY)
inhibition of 125I-TGF-β1 binding to TGF-β receptors (in words) (TGF-β receptors [2]): similar

β1^10 (49-58) W52A (PYIASLDTQY)
inhibition of 125I-TGF-β1 binding to TGF-β receptors (in words) (TGF-β receptors [2]): similar

β1^25 (41-65) W52A/D55A (ANFCLGPCPYIASLATQYSKVLALY)
inhibition of 125I-TGF-β1 binding to TGF-β receptors (in words) (TGF-β receptors [2]): did not inhibit

β1^25 (41-65)-BSA: peptide β1^25 (41-65) cross-linked with DSS to bovine serum albumin, ~5-10 peptides per carrier protein
EC50 [4]: ~100 nM | effects on the expression of PAI-1 (PAI-1 expression): neither showed significant effects | IC50 lower than that of peptide β1^25 (41-65) prior to conjugation (TGF-β receptors [2]): ~20 fold

β1^25 (41-65)-CA: peptide β1^25 (41-65) cross-linked with DSS to human carbonic anhydrase I, ~5-10 peptides per carrier protein
growth inhibition induced by conjugate ([4]; 0.2 μM conjugate): 30-40% | EC50 [4]: ~100 nM | effects on the expression of PAI-1 (PAI-1 expression): neither showed significant effects | IC50 (TGF-β receptors [2]): ~50 nM | IC50 lower than that of peptide β1^25 (41-65) prior to conjugation (TGF-β receptors [2]): ~20 fold

β2^10 (49-58) D55A (PYLWSSATQH)
inhibition of 125I-TGF-β1 binding to TGF-β receptors (in words) (TGF-β receptors [2]): failed to inhibit

β2^10 (49-58) S53A (PYLWASDTQH)
IC50 (TGF-β receptors [2]): ~40000 nM

β2^10 (49-58) W52A (PYLASSDTQH)
inhibition of 125I-TGF-β1 binding to TGF-β receptors (in words) (TGF-β receptors [2]): failed to inhibit

β3^10 (49-58): decapeptide, residues 49-58 of TGF-β3 (SEQ ID NO:9) (PYLRSADTTH; listed as Homo sapiens)
inhibitory activity on 125I-TGF-β1 binding (TGF-β receptors [2]; concentrations up to ~300 μM): did not show any inhibitory activity

β3^25 (41-65) R52A/D55A (ANFCSGPCPYLASAATTHSTVLGLY)
inhibition of 125I-TGF-β1 binding to TGF-β receptors (in words) (TGF-β receptors [2]): did not inhibit
